Data taken from ChEMBL document CHEMBL1137226, “Structure modifications of 6-aminoquinolones with potent anti-HIV activity” (J Med Chem, 2004).
Converted amounts (≈) assume the structure as drawn.

Assays:
MT4 [1] = test: Concentration of compound that reduces the viability of mock-infected MT-4 cells by 50%; type: functional; details: Homo sapiens
MT4 [2] = test: Maximum protection (%) of MT-4 cells from HIV-2 (ROD) induced cytopathogenicity; type: functional, Homo sapiens
MT4 [3] = test: Selectivity index towards HIV-2 (ROD) in MT-4 cells; type: functional, Homo sapiens
MT4 [4] = test: Concentration required for protection of MT-4 cells from HIV-1 (IIIB) induced cytopathogenicity in MTT assay; type: functional, cell-based; details: Homo sapiens
MT4 [5] = test: Selectivity index towards HIV-1 (IIIB) in MT-4 cells; type: functional, Homo sapiens
MT4 [6] = test: Maximum protection (%) of MT-4 cells from HIV-1 (IIIB) induced cytopathogenicity; value ranges from 16-36%; type: functional, Homo sapiens
MT4 [7] = test: Concentration required for protection of MT-4 cells from HIV-2 (ROD) induced cytopathogenicity in MTT assay; type: functional, cell-based; details: Homo sapiens
MT4 [8] = test: Maximum protection (%) of MT-4 cells from HIV-1 (IIIB) induced cytopathogenicity; value ranges from 32-39%; type: functional, Homo sapiens
MT4 [9] = test: Maximum protection (%) of MT-4 cells from HIV-2 (ROD) induced cytopathogenicity; value ranges from 27-33%; type: functional, Homo sapiens
MT4 [10] = test: Maximum protection (%) of MT-4 cells from HIV-1 (IIIB) induced cytopathogenicity; value ranges from 8-9%; type: functional, Homo sapiens
MT4 [11] = test: Maximum protection (%) of MT-4 cells from HIV-1 (IIIB) induced cytopathogenicity; value ranges from 53-59%; type: functional, Homo sapiens
[12] = Concentration of compound required for reduction of p24 production in HIV-1 (IIIB) infected peripheral blood mononuclear cells; type: functional; details: Homo sapiens
MT4 [13] = test: Maximum protection (%) of MT-4 cells from HIV-2 (ROD) induced cytopathogenicity; value ranges from 40-43%; type: functional, Homo sapiens
[14] = Selectivity index towards HIV-1 (IIIB) in peripheral blood mononuclear cells; type: functional, Homo sapiens
[15] = Concentration of compound that reduces the viability of mock-infected peripheral blood mononuclear cells by 50%; type: functional; details: Homo sapiens
CCRF-CEM [16] = test: Concentration of compound required for protection of CEM cells from HIV-1 (IIIB) induced cytopathogenicity; type: functional, cell-based; details: Homo sapiens
CCRF-CEM [17] = test: Concentration of compound that reduces the viability of mock-infected CEM cells by 50%; type: functional; details: Homo sapiens
CCRF-CEM [18] = test: Selectivity index towards HIV-1 (IIIB) in CEM cells; type: functional, Homo sapiens
CCRF-CEM [19] = test: Concentration of compound required for protection of CEM cells from HIV-2 (ROD) induced cytopathogenicity; type: functional, cell-based; details: Homo sapiens
CCRF-CEM [20] = test: Selectivity index towards HIV-2 (ROD) in CEM cells; type: functional, Homo sapiens
MT4 [21] = test: Maximum protection (%) of MT-4 cells from HIV-1 (IIIB) induced cytopathogenicity; value ranges from 3-8%; type: functional, Homo sapiens
MT4 [22] = test: Maximum protection (%) of MT-4 cells from HIV-2 (ROD) induced cytopathogenicity; value ranges from 40-42%; type: functional, Homo sapiens
MT4 [23] = test: Maximum protection (%) of MT-4 cells from HIV-1 (IIIB) induced cytopathogenicity; value ranges from 29-37%; type: functional, Homo sapiens
MT4 [24] = test: Maximum protection (%) of MT-4 cells from HIV-2 (ROD) induced cytopathogenicity; value ranges from 55-58%; type: functional, Homo sapiens
MT4 [25] = test: Maximum protection (%) of MT-4 cells from HIV-1 (IIIB) induced cytopathogenicity; value ranges from 32-62%; type: functional, Homo sapiens
MT4 [26] = test: Maximum protection (%) of MT-4 cells from HIV-1 (IIIB) induced cytopathogenicity; value ranges from 34-37%; type: functional, Homo sapiens
MT4 [27] = test: Maximum protection (%) of MT-4 cells from HIV-2 (ROD) induced cytopathogenicity; value ranges from 22-24%; type: functional, Homo sapiens
MT4 [28] = test: Maximum protection (%) of MT-4 cells from HIV-1 (IIIB) induced cytopathogenicity; value ranges from 2-14%; type: functional, Homo sapiens
MT4 [29] = test: Maximum protection (%) of MT-4 cells from HIV-1 (IIIB) induced cytopathogenicity; value ranges from 4-13%; type: functional, Homo sapiens
MT4 [30] = test: Maximum protection (%) of MT-4 cells from HIV-1 (IIIB) induced cytopathogenicity; value ranges from 88-115%; type: functional, Homo sapiens
MT4 [31] = test: Maximum protection (%) of MT-4 cells from HIV-1 (IIIB) induced cytopathogenicity; value ranges from 14-20%; type: functional, Homo sapiens
MT4 [32] = test: Maximum protection (%) of MT-4 cells from HIV-1 (IIIB) induced cytopathogenicity; value ranges from 5-6%; type: functional, Homo sapiens
MT4 [33] = test: Maximum protection (%) of MT-4 cells from HIV-1 (IIIB) induced cytopathogenicity; value ranges from 2-18%; type: functional, Homo sapiens
MT4 [34] = test: Maximum protection (%) of MT-4 cells from HIV-2 (ROD) induced cytopathogenicity; value ranges from 21-26%; type: functional, Homo sapiens
MT4 [35] = test: Maximum protection (%) of MT-4 cells from HIV-1 (IIIB) induced cytopathogenicity; value ranges from 16-49%; type: functional, Homo sapiens

| SMILES | CC50 (MT4 [1]) | Protection (MT4 [2]) | Selectivity index (MT4 [3]) | EC50 (MT4 [4]) | Selectivity index (MT4 [5]) | EC50 (MT4 [7]) | also measured |
| --- | --- | --- | --- | --- | --- | --- | --- |
| Nc1cc2c(=O)c(C(=O)O)cn(C3CC3)c2cc1N1CCN(c2nc3ccccc3s2)CC1 | 0.07 µg/mL (≈ 0.152 µM) | 42% | <1 | > 0.07 µg/mL | <1 | > 0.07 µg/mL | Protection (MT4 [6]): <36% |
| Cn1cc(C(=O)O)c(=O)c2cnc(N3CCN(c4ccccn4)CC3)cc21 | 67.4 µg/mL (≈ 184 µM) | – | <1 | > 67.4 µg/mL | <1 | > 67.4 µg/mL | Protection (MT4 [8]): <39%; Protection (MT4 [9]): <33% |
| COc1ccccc1N1CCN(c2ccc3c(=O)c(C(=O)O)cn(C)c3c2)CC1 | > 125 µg/mL | 6% | – | > 125 µg/mL | – | > 125 µg/mL | Protection (MT4 [10]): <9% |
| Cn1cc(C(=O)O)c(=O)c2ccc(N3CCN(c4ccccn4)CC3)cc21 | 65.5 µg/mL (≈ 180 µM) | – | <1 | 19.2 µg/mL (≈ 52.7 µM) | 3.4 | > 65.5 µg/mL | Protection (MT4 [11]): <59%; EC50 [12]: 1.37 µg/mL (≈ 3.76 µM); Protection (MT4 [13]): <43%; Selectivity index [14]: >73; CC50 [15]: > 100 µg/mL; EC50 (CCRF-CEM [16]): 1.2 µg/mL (≈ 3.29 µM); CC50 (CCRF-CEM [17]): > 100 µg/mL; Selectivity index (CCRF-CEM [18]): >83; EC50 (CCRF-CEM [19]): 1.8 µg/mL (≈ 4.94 µM); Selectivity index (CCRF-CEM [20]): >56 |
| Cn1cc(C(=O)O)c(=O)c2cc([N+](=O)[O-])c(N3CCN(c4ccccn4)CC3)c(F)c21 | 29.6 µg/mL (≈ 69.2 µM) | 4% | <1 | > 29.6 µg/mL | <1 | > 29.6 µg/mL | Protection (MT4 [21]): <8% |
| Cn1cc(C(=O)O)c(=O)c2cc(N)c(N3CCN(c4ccccn4)CC3)c(F)c21 | 6.08 µg/mL (≈ 15.3 µM) | – | <1 | > 6.08 µg/mL | <1 | > 6.08 µg/mL | Protection (MT4 [22]): <42%; Protection (MT4 [23]): <37% |
| Nc1cc2c(=O)c(C(=O)O)cn(N3CCN(c4ccccn4)CC3)c2cc1N1CCN(c2ccccn2)CC1 | 58.5 µg/mL (≈ 111 µM) | – | 3 | ≥ 17.4 µg/mL | <=3.4 | 19.2 µg/mL (≈ 36.5 µM) | EC50 [12]: 2.24 µg/mL (≈ 4.25 µM); Selectivity index [14]: >=19; CC50 [15]: ≥ 43.3 µg/mL; Protection (MT4 [24]): <58%; EC50 (CCRF-CEM [16]): 9.4 µg/mL (≈ 17.9 µM); CC50 (CCRF-CEM [17]): > 100 µg/mL; Protection (MT4 [25]): <62%; Selectivity index (CCRF-CEM [18]): >11; EC50 (CCRF-CEM [19]): 12 µg/mL (≈ 22.8 µM); Selectivity index (CCRF-CEM [20]): >8 |
| Nc1cc2c(=O)c(C(=O)O)cn(-c3ccc(F)cc3)c2cc1N1CCN(c2ccccn2)CC1 | 22 µg/mL (≈ 47.9 µM) | – | <1 | > 22 µg/mL | <1 | > 22 µg/mL | Protection (MT4 [26]): <37%; Protection (MT4 [27]): <24% |
| Nc1cc2c(=O)c(C(=O)O)cn(C3CCN(Cc4ccccc4)CC3)c2cc1N1CCN(c2ccccn2)CC1 | 2.36 µg/mL (≈ 4.38 µM) | 5% | <1 | > 2.36 µg/mL | <1 | > 2.36 µg/mL | Protection (MT4 [28]): <14% |
| Cn1cc(C(=O)O)c(=O)c2cc([N+](=O)[O-])c(N3CCN(c4ccccn4)CC3)cc21 | 10.1 µg/mL (≈ 24.6 µM) | 5% | <1 | > 10.1 µg/mL | <1 | > 10.1 µg/mL | Protection (MT4 [29]): <13% |
| Nc1cc2c(=O)c(C(=O)O)cn(C3CC3)c2cc1N1CCN(c2cccc(C(F)(F)F)c2)CC1 | 3.83 µg/mL (≈ 8.11 µM) | 71% | 10.1 | 0.27 µg/mL (≈ 0.571 µM) | 14.2 | 0.38 µg/mL (≈ 0.804 µM) | EC50 [12]: 1.09 µg/mL (≈ 2.31 µM); Selectivity index [14]: 4; CC50 [15]: 4.63 µg/mL (≈ 9.8 µM); EC50 (CCRF-CEM [16]): 0.8 µg/mL (≈ 1.69 µM); CC50 (CCRF-CEM [17]): 9 µg/mL (≈ 19 µM); Selectivity index (CCRF-CEM [18]): 11; EC50 (CCRF-CEM [19]): 0.8 µg/mL (≈ 1.69 µM); Protection (MT4 [30]): <115%; Selectivity index (CCRF-CEM [20]): 11 |
| Nc1cc2c(=O)c(C(=O)O)cn(-c3nc4ccccc4s3)c2cc1N1CCN(c2ccccn2)CC1 | 9.13 µg/mL (≈ 18.3 µM) | 21% | <1 | > 9.13 µg/mL | <1 | > 9.13 µg/mL | Protection (MT4 [31]): <20% |
| Nc1cc2c(=O)c(C(=O)O)cn(-c3ccc(-c4ccccc4)cc3)c2cc1N1CCN(c2nc3ccccc3s2)CC1 | 0.67 µg/mL (≈ 1.17 µM) | 1% | <1 | > 0.67 µg/mL | <1 | > 0.67 µg/mL | Protection (MT4 [32]): <6% |
| Nc1cc2c(=O)c(C(=O)O)cn(N3CCN(c4ccccn4)CC3)c2cc1N1CCN(c2nc3ccccc3s2)CC1 | 0.24 µg/mL (≈ 0.412 µM) | 0% | <1 | > 0.24 µg/mL | <1 | > 0.24 µg/mL | Protection (MT4 [33]): <18% |
| COc1c(N2CCN(c3ccccn3)CC2)c(N)cc2c(=O)c(C(=O)O)cn(C)c12 | 4.28 µg/mL (≈ 10.5 µM) | – | <1 | > 4.28 µg/mL | <1 | > 4.28 µg/mL | Protection (MT4 [34]): <26%; Protection (MT4 [35]): <49% |
